Results on two molecules are retold here after patent publication US12122763B2, “Substituted piperidines for androgen receptor degradation” (UBIX THERAPEUTICS, INC., priority 2020, dated 2024).

Holding throughout (assay type): cell-based
The target in one assay is T877A AR mutant (Homo sapiens, UniProt P10275, T878A). Put plainly: Degradation of AR mutant T877A. The settings on record: at a concentration of 100 nM. An excerpt:
On the other hand, the compounds of the present invention have excellent degradation activity against AR mutants (T877A, M896V, F876L, H874Y, L702H, W741C, etc.). Since resistance to existing anti-androgen receptor drugs can be caused by AR mutation, the excellent AR mutant-degrading activity of the compounds of the present invention can help overcome resistance to existing drugs.

The next assay deals with T1, AR-V7 (Homo sapiens, UniProt P10275).
T1 sequence (P10275 1-644 isoform P10275-3): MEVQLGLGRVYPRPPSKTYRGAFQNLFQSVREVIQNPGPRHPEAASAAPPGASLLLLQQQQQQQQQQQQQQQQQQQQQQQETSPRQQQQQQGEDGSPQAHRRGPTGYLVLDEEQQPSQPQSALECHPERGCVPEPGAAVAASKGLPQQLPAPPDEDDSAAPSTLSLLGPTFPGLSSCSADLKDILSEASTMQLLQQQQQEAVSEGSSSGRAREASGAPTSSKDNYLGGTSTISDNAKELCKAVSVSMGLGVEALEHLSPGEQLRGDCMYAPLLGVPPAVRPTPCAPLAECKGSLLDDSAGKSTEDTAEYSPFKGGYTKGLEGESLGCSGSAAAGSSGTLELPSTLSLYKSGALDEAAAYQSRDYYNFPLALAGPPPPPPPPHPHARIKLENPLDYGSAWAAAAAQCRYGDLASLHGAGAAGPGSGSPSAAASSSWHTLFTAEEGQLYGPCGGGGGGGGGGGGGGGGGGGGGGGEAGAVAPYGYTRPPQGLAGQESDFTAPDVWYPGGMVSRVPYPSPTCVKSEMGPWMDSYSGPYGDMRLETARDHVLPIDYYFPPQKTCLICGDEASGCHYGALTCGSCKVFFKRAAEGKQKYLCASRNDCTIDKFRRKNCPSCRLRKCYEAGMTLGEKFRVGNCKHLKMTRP
Briefly: Reduction of expression of AR splicing variant AR-V7. The settings on record: at a concentration of 100 nM. An excerpt:
In addition, another mechanism by which resistance to existing treatments occurs is the expression of AR splicing variants (eg, AR-V7). The compounds of the present invention are excellent in reducing the expression of these variants (eg, AR-V7), and thus have a better anti-proliferative effect in AR-V7 positive prostate cancer cells. For example, the compounds of Examples 6 and 169 of the present disclosure inhibited the expression of AR-V7 by 87% and 48%, respectively, at a concentration of 100 nM.

Assay [1] has as its target T2, Androgen Receptor (AR) protein (Homo sapiens, UniProt P10275, T878A).
T2 construct: endogenous in cells; host or cells: LNCaP
Put plainly: Androgen Receptor (AR) protein degradation assay in LNCaP cells, western blotting. The settings on record: 20 h; for inhibition at 0.01 µM: 0.01 μM compound; for inhibition at 0.1 µM: 0.1 μM compound; for inhibition at 1 µM: 1 μM compound. An outline of the steps: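 LNCaP prostate cancer cells were cultured 3 days, then treated with compound for 20 h. Lysates in 1% SDS buffer were normalised by BCA, and 8 μg protein was run on 4–12% Bis-Tris gels. AR was immunoblotted with chemiluminescence, using GAPDH/β-actin as loading controls.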

T2 sequence (P10275 whole entry T878A): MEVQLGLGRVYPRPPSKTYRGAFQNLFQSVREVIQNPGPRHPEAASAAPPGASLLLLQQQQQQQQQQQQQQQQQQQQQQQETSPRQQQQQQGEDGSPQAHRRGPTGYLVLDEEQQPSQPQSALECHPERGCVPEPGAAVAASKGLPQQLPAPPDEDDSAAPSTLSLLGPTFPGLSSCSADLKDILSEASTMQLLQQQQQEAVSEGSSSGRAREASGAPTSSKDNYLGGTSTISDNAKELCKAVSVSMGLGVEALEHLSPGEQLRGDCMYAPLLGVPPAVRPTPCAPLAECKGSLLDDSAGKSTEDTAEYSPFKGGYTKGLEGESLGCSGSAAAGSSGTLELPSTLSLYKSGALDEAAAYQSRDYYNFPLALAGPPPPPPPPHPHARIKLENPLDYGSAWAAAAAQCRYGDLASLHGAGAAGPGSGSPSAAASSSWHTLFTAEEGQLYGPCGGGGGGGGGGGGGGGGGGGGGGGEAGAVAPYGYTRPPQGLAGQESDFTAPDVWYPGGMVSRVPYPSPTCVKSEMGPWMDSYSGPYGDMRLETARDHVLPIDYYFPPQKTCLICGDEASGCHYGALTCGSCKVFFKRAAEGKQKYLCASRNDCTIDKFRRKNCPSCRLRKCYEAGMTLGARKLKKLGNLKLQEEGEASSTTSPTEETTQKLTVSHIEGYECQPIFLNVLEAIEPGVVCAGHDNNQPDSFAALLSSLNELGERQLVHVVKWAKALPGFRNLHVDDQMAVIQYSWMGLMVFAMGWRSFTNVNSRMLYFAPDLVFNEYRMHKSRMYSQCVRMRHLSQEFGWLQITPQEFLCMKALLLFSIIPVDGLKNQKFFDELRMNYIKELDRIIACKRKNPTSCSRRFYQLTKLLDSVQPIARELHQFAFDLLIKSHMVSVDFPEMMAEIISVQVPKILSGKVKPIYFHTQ
T2 sequence (Q96SW2 whole entry partner): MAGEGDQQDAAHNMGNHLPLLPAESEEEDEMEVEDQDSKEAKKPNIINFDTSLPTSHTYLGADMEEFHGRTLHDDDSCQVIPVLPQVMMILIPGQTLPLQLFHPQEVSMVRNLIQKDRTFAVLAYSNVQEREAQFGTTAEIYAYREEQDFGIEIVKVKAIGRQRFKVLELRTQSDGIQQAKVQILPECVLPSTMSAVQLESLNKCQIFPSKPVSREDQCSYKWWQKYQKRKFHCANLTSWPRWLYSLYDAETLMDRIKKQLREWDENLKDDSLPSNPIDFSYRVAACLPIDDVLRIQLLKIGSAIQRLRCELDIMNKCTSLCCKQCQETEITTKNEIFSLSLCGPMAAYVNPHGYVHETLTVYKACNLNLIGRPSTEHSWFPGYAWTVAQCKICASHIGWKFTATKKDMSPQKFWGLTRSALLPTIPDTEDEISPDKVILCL
Sequence of T877A AR mutant (P10275 whole entry T878A): as the sequence (P10275 whole entry T878A) above
Sequence of T877A AR mutant (Q96SW2 whole entry partner): as the sequence (Q96SW2 whole entry partner) above

The term inhibition denotes the drop in the measured response relative to a control, in per cent. On to `N#Cc1ccc(N2CCC(C(=O)Nc3ccc(N4CCC(CN5CCN(CC6CCN(c7ccc8c(c7)C(=O)N(C7CCC(=O)NC7=O)C8=O)CC6)CC5)CC4)cn3)CC2)cc1C(F)(F)F` (stereo not shown) [Example 6, 1-(4-cyano-3-(trifluoromethyl)phenyl)-N-(5-(4-((4-((1-(2-(2,6-dioxopiperidin-3-yl)-1,3-dioxoisoindolin-5-yl)piperidin-4-yl)methyl)piperazin-1-yl)methyl)piperidin-1-yl)pyridin-2-yl)piperidine-4-carboxamide], for which the “degradation activity for the T877A AR mutant” value on T877A AR mutant stood at 73%. Also, the “inhibited the expression of AR-V7” value against AR-V7 is listed as 87%. In assay [1], the inhibition at 0.01 µM came out at 83%, the inhibition at 0.1 µM came to 99% and the inhibition at 1 µM was 99%. In assay [1] (10 μM compound), the inhibition at 10 µM came to 97%.
Consider `N#Cc1ccc(N2CCC(C(=O)Nc3ccc(OC4CCN(CC5CCN(c6ccc7c(c6)C(=O)N(C6CCC(=O)NC6=O)C7=O)CC5)CC4)cn3)CC2)cc1C(F)(F)F` (stereo not shown) [Example 169, 1-(4-cyano-3-(trifluoromethyl)phenyl)-N-(5-((1-((1-(2-(2,6-dioxopiperidin-3-yl)-1,3-dioxoisoindolin-5-yl)piperidin-4-yl)methyl)piperidin-4-yl)oxy)pyridin-2-yl)piperidine-4-carboxamide], for which the “inhibited the expression of AR-V7” value against AR-V7 is listed as 48%. Also, in assay [1], 0.01 µM produced 85% inhibition, at 0.1 µM the inhibition was 99% and testing at 1 µM gave an inhibition of 99%.
